Consider 1 molecule from PMC3744530, “CTA095, a Novel Etk and Src Dual Inhibitor, Induces Apoptosis in Prostate Cancer Cells and Overcomes Resistance to Src Inhibitors” (PLoS ONE, 2013).

One assay has as its system PC3-AZD20 cells. The assay is described as follows: MTT cell viability in Src inhibitor resistant cells. Type of assay: cell-based, human. Conditions: 72 h. The protocol:
PC3 and PC3-AZD20 (PC3 cell resistant to 20 μM AZD0530, which is from AstraZeneca through MTA with Dr. Chris Evans) cells were seeded at 2000 cells/well in 96 well plates overnight. The cells were treated with AZD0530 or CTA095 at the indicated concentrations. Cell viability was measured using an MTT assay after 72 h.
Figure 11 CTA095 overcomes Src inhibitor resistance in prostate cancer cells. PC3 and PC3-AZD20 (PC3 cell resistant to 20 μM AZD0530) cells were seeded at 2000 cells/well in 96 well plates overnight. The cells were treated with AZD0530 or CTA095 at the indicated concentrations. Cell viability was measured using MTT assay after 72 h. Symbols, mean; bars, standard deviation, n = 3.

Assay [1] has as its system PC3 cells stably transfected with GFP-LC3. On the set-up: method as in PMID 20811583. Particulars: cited from earlier work.
The subject of assay [2] is pEtk, pSrc, pSTAT3, Myc and BCL2 in PC3-AZD20 cells. The assay is described as follows: Western blot of pEtk, pSrc, pStat3, Myc and BCL2. Type of assay: cell-based, human. Particulars: PC3-AZD20, 10 μM. The protocol:
PC3-AZD20 cells were seeded at 10^6 cells/well in 6 well plates overnight. The cells were treated with AZD0530 or CTA095 at 10 μM. Apoptosis was analyzed using Annexin-V FITC apoptosis detection kit. The mRNA levels of Myc and BCL2 were measured using real-time PCR. pEtk, Etk, pSrc, Src, pStat3, Stat3, Myc and BCL2 levels were measured using the corresponding antibodies through a Western blot.
Figure 12 CTA095 induces apoptosis in Src inhibitor resistant prostate cancer cells through Myc and BCL2 inhibition. PC3-AZD20 (PC3 cell resistant to 20 μM AZD0530) cells were seeded at 10^6 cells/well in 6 well plates overnight. The cells were treated with AZD0530 or CTA095 at 10 μM. Apoptosis was analyzed using Annexin-V FITC apoptosis detection kit (A). The mRNA levels of Myc and BCL2 were measured using real-time PCR (B). pEtk, Etk, pSrc, Src, pStat3, Stat3, Myc and BCL2 levels were measured using the corresponding antibodies through Western blot (C). Columns, mean; bars, standard deviation, n = 3.
In general terms: In western blotting, separated proteins are transferred to a membrane and probed.

In the case of `CN1CCN(CCOc2cc(OC3CCOCC3)c3c(Nc4c(Cl)ccc5c4OCO5)ncnc3c2)CC1` [AZD0530, reference compound], in the assay on PC3-AZD20 cells, the “cell viability / sensitivity of PC3-AZD20 cells” value is on record as “resistant”. Further, the “autophagy in prostate cancer cells” value in assay [1] is given as “induces autophagy”. Besides, the “pEtk, pSrc, pSTAT3, Myc and BCL2 protein levels” value in assay [2] was “pSrc and pSTAT3, but not c-myc and Bcl-2 were decreased”.
